Test results as given in patent US4681872A (priority 1985, dated 1987).
Converted amounts (≈) assume the structure as drawn. Where two headings read alike, the source gives them in different places.

How the values were obtained:
Peptostrep. SP TB-11 = test: antimicrobial spectrum, agar dilution MIC
Strep. pyogenes C203 = test: antimicrobial spectrum, agar dilution MIC; type: cell-based; settings: BHI agar, 35°-37° C., 20-24 hours
E. coli H560 = test: antimicrobial spectrum, agar dilution MIC
[1] = system: Staph. epidermidis CMX 729h; test: antimicrobial spectrum, agar dilution MIC
[2] = system: Strep. pyogenes M79061-139; test: antimicrobial spectrum, agar dilution MIC; type: cell-based; settings: 35°-37° C., 20-24 hours
Staph. aureus CMX 730A = test: antimicrobial spectrum, agar dilution MIC; type: cell-based; settings: BHI agar, 35°-37° C., 20-24 hours
Bact. SP SFM2975-2 = test: antimicrobial spectrum, agar dilution MIC
Bact. fragilis 105 = test: antimicrobial spectrum, agar dilution MIC; type: cell-based; settings: BHI agar, 35°-37° C., 20-24 hours
[3] = system: Staph. epidermidis CMX 728; test: antimicrobial spectrum, agar dilution MIC; type: cell-based; settings: 35°-37° C., 20-24 hours
Staph. aureus ATCC 6538P = test: antimicrobial spectrum, agar dilution MIC
[4] = system: Bact. thetaiotamicron ATCC 29741; test: antimicrobial spectrum, agar dilution MIC
Bact. fragilis SFM2906A = test: antimicrobial spectrum, agar dilution MIC
Strep. faecalis CMX 663F = test: antimicrobial spectrum, agar dilution MIC
Cl. perfringens 788 = test: microbe, parasite or virus in culture; type: cell-based
Strep. pyogenes EES61 = test: antimicrobial spectrum, agar dilution MIC; type: cell-based; settings: BHI agar, 35°-37° C., 20-24 hours
[5] = system: Cl. perfringens SFBC 2026; test: microbe, parasite or virus in culture; type: cell-based
[6] = system: Strep. agalactiae CMX 633; test: antimicrobial spectrum, agar dilution MIC; type: cell-based; settings: 35°-37° C., 20-24 hours
Bact. vulgatus 792 = test: antimicrobial spectrum, agar dilution MIC; type: cell-based; settings: BHI agar, 35°-37° C., 20-24 hours
[7] = system: Staph. saprophyticus ATCC 15305; test: antimicrobial spectrum, agar dilution MIC; type: cell-based; settings: 35°-37° C., 20-24 hours
Staph. aureus A5177 = test: antimicrobial spectrum, agar dilution MIC
Strep. pneumoniae = test: acute mouse protection test; type: in vivo, Swiss albino mice; settings: mice, dosed 1 and 5 hours post-infection, observed 7 days; for ED50: Streptococcus pneumoniae, 168 h
Staph. aureus NCTC 10649 = test: antimicrobial spectrum, agar dilution MIC; type: cell-based; settings: 35°-37° C., 20-24 hours
Enterococcus GYR 1167 = test: antimicrobial spectrum, agar dilution MIC
[8] = system: Ent. aerogenes ATCC 10348; test: antimicrobial spectrum, agar dilution MIC
Enterococcus A-5168 = test: antimicrobial spectrum, agar dilution MIC
[9] = system: Propionibacterium acnes 132; test: antimicrobial spectrum, agar dilution MIC
Staph. aureus CYR 1162 = test: antimicrobial spectrum, agar dilution MIC; type: cell-based; settings: 35°-37° C., 20-24 hours
[10] = system: Strep. pneumoniae 78-008107; test: antimicrobial spectrum, agar dilution MIC
Staph. epidermidis 3519 = test: antimicrobial spectrum, agar dilution MIC
[11] = system: Veillonella parvula ATCC 10790; test: antimicrobial spectrum, agar dilution MIC
Staph. aureus 642A = test: antimicrobial spectrum, agar dilution MIC; type: cell-based; settings: BHI agar, 35°-37° C., 20-24 hours
Cl. perfringens 104 = test: microbe, parasite or virus in culture; type: cell-based
Staph. aureus A-5278 = test: antimicrobial spectrum, agar dilution MIC
Staph. aureus CMX 686B = test: antimicrobial spectrum, agar dilution MIC
[12] = Streptococcus pyogenes, read-out: MIC

CC[C@H]1OC(=O)[C@H](C)[C@@H](O[C@H]2C[C@@](C)(OC)[C@@H](O)[C@H](C)O2)[C@H](C)[C@@H](O[C@@H]2O[C@H](C)C[C@H](N(C)C)[C@H]2O)[C@](C)(O)C[C@@H](C)C(=O)[C@H](C)[C@@H](O)[C@]1(C)O [Erythromycin A, reference compound]
MIC (Peptostrep. SP TB-11): 3.1 µg/mL (≈ 4.22 µM) | MIC (Strep. pyogenes C203; [12]): 0.004 µg/mL (≈ 0.00545 µM) | MIC (E. coli H560; Escherichia coli, H560): 12.5 µg/mL (≈ 17 µM) | MIC ([1]; Staphylococcus epidermidis, CMX729H): 128 µg/mL (≈ 174 µM) | MIC ([2]; Streptococcus pyogenes, M79061139, BHI agar, read-out: MIC): 0.015 µg/mL (≈ 0.0204 µM) | MIC (Staph. aureus CMX 730A; Staphylococcus aureus, CMX730A, read-out: MIC): 0.06 µg/mL (≈ 0.0818 µM) | MIC (Bact. SP SFM2975-2): 1.6 µg/mL (≈ 2.18 µM) | MIC (Bact. fragilis 105; Bacteroides fragilis, read-out: MIC): 0.4 µg/mL (≈ 0.545 µM) | MIC ([3]; Staphylococcus epidermidis, CMX728, BHI agar, read-out: MIC): 0.06 µg/mL (≈ 0.0818 µM) | MIC (Staph. aureus ATCC 6538P; Staphylococcus aureus, ATCC6538P): 0.39 µg/mL (≈ 0.531 µM) | MIC [4]: 3.1 µg/mL (≈ 4.22 µM) | MIC (Bact. fragilis SFM2906A; Bacteroides fragilis, SFM2906A): 3.1 µg/mL (≈ 4.22 µM) | MIC (Strep. faecalis CMX 663F; Enterococcus faecalis, CMX663F): 16 µg/mL (≈ 21.8 µM) | MIC (Cl. perfringens 788; Clostridium perfringens, 788): 1.6 µg/mL (≈ 2.18 µM) | MIC (Strep. pyogenes EES61; [12]): 0.01 µg/mL (≈ 0.0136 µM) | MIC ([5]; Clostridium perfringens, SFBC2026): 1.6 µg/mL (≈ 2.18 µM) | MIC ([6]; Streptococcus agalactiae, CMX633, BHI agar, read-out: MIC): 0.015 µg/mL (≈ 0.0204 µM) | MIC (Bact. vulgatus 792; Phocaeicola vulgatus, read-out: MIC): 0.4 µg/mL (≈ 0.545 µM) | MIC ([7]; Staphylococcus saprophyticus, ATCC15305, BHI agar, read-out: MIC): 0.06 µg/mL (≈ 0.0818 µM) | MIC (Staph. aureus A5177; Staphylococcus aureus, A5177): 1.56 µg/mL (≈ 2.13 µM) | ED50 (Strep. pneumoniae; oral): 113 mg/kg | ED50 (Strep. pneumoniae; sc, subcutaneous): 50 mg/kg | MIC (Staph. aureus NCTC 10649; Staphylococcus aureus, NCTC10649, BHI agar, read-out: MIC): 0.12 µg/mL (≈ 0.164 µM) | MIC (Enterococcus GYR 1167; Enterococcus, GYR1167): 2 µg/mL (≈ 2.73 µM) | MIC ([8]; Klebsiella aerogenes, ATCC10348): 100 µg/mL (≈ 136 µM) | MIC (Enterococcus A-5168; Enterococcus, A5168): 128 µg/mL (≈ 174 µM) | MIC ([9]; Cutibacterium acnes, 132): 0.05 µg/mL (≈ 0.0681 µM) | MIC (Staph. aureus CYR 1162; Staphylococcus aureus, CYR1162, BHI agar, read-out: MIC): 0.06 µg/mL (≈ 0.0818 µM) | MIC ([10]; Streptococcus pneumoniae, 78008107): 128 µg/mL (≈ 174 µM) | MIC (Staph. epidermidis 3519; Staphylococcus epidermidis, 3519): 0.39 µg/mL (≈ 0.531 µM) | MIC ([11]; Veillonella parvula, ATCC10790): 12.5 µg/mL (≈ 17 µM) | MIC (Staph. aureus 642A; Staphylococcus aureus, read-out: MIC): 0.12 µg/mL (≈ 0.164 µM) | MIC (Cl. perfringens 104; Clostridium perfringens, 104): 1.6 µg/mL (≈ 2.18 µM) | MIC (Staph. aureus A-5278; Staphylococcus aureus, A5278): 128 µg/mL (≈ 174 µM) | MIC (Staph. aureus CMX 686B; Staphylococcus aureus, CMX686B): 0.39 µg/mL (≈ 0.531 µM)

CCC1OC(=O)C(C)C(OC2CC(C)(OC)CC(C)O2)C(C)C(OC2OC(C)CC(N(C)C)C2O)C(C)(O)CC(C)C(=O)C(C)C2OC(=O)OC12C (stereo not shown) [4"-deoxyerythromycin A 11,12-carbonate]
MIC (Peptostrep. SP TB-11; Peptostrep. SP TB-11, BHI agar, 35°-37° C., 20-24 hours): .8 µg/mL (≈ 1.08 µM) | MIC (Strep. pyogenes C203): .004 µg/mL (≈ 0.00538 µM) | MIC (E. coli H560; E. coli H560, BHI agar, 35°-37° C., 20-24 hours): 6.2 µg/mL (≈ 8.33 µM) | MIC ([1]; Staph. epidermidis CMX 729h, BHI agar, 35°-37° C., 20-24 hours): 128 µg/mL (≈ 172 µM) | MIC ([2]; BHI agar): .015 µg/mL (≈ 0.0202 µM) | MIC (Staph. aureus CMX 730A): .03 µg/mL (≈ 0.0403 µM) | MIC (Bact. SP SFM2975-2; Bact. SP SFM2975-2, BHI agar, 35°-37° C., 20-24 hours): .8 µg/mL (≈ 1.08 µM) | MIC (Bact. fragilis 105): .2 µg/mL (≈ 0.269 µM) | MIC ([3]; BHI agar): .03 µg/mL (≈ 0.0403 µM) | MIC (Staph. aureus ATCC 6538P; Staph. aureus ATCC 6538P, BHI agar, 35°-37° C., 20-24 hours): .1 µg/mL (≈ 0.134 µM) | MIC ([4]; Bact. thetaiotamicron ATCC 29741, BHI agar, 35°-37° C., 20-24 hours): 1.6 µg/mL (≈ 2.15 µM) | MIC (Bact. fragilis SFM2906A; Bact. fragilis SFM2906A, BHI agar, 35°-37° C., 20-24 hours): .8 µg/mL (≈ 1.08 µM) | MIC (Strep. faecalis CMX 663F; Strep. faecalis CMX 663F, BHI agar, 35°-37° C., 20-24 hours): 2 µg/mL (≈ 2.69 µM) | MIC (Cl. perfringens 788; Cl. perfringens 788, BHI agar, 35°-37° C., 20-24 hours): .4 µg/mL (≈ 0.538 µM) | MIC (Strep. pyogenes EES61): .01 µg/mL (≈ 0.0134 µM) | MIC ([5]; Cl. perfringens SFBC 2026, BHI agar, 35°-37° C., 20-24 hours): .4 µg/mL (≈ 0.538 µM) | MIC ([6]; BHI agar): .015 µg/mL (≈ 0.0202 µM) | MIC (Bact. vulgatus 792): .2 µg/mL (≈ 0.269 µM) | MIC ([7]; BHI agar): .03 µg/mL (≈ 0.0403 µM) | MIC (Staph. aureus A5177; Staph. aureus A5177, BHI agar, 35°-37° C., 20-24 hours): .39 µg/mL (≈ 0.524 µM) | ED-50 (Strep. pneumoniae; oral): 200.0 mg/kg | ED-50 (Strep. pneumoniae; subcutaneous): 44.1 mg/kg | MIC (Staph. aureus NCTC 10649; BHI agar): .06 µg/mL (≈ 0.0807 µM) | MIC (Enterococcus GYR 1167; Enterococcus GYR 1167, BHI agar, 35°-37° C., 20-24 hours): .5 µg/mL (≈ 0.672 µM) | MIC ([8]; Ent. aerogenes ATCC 10348, BHI agar, 35°-37° C., 20-24 hours): 50 µg/mL (≈ 67.2 µM) | MIC (Enterococcus A-5168; Enterococcus A-5168, BHI agar, 35°-37° C., 20-24 hours): 128 µg/mL (≈ 172 µM) | MIC ([9]; Propionibacterium acnes 132, BHI agar, 35°-37° C., 20-24 hours): .05 µg/mL (≈ 0.0672 µM) | MIC (Staph. aureus CYR 1162; BHI agar): .06 µg/mL (≈ 0.0807 µM) | MIC ([10]; Strep. pneumoniae 78-008107, BHI agar, 35°-37° C., 20-24 hours): 32 µg/mL (≈ 43 µM) | MIC (Staph. epidermidis 3519; Staph. epidermidis 3519, BHI agar, 35°-37° C., 20-24 hours): .1 µg/mL (≈ 0.134 µM) | MIC ([11]; Veillonella parvula ATCC 10790, BHI agar, 35°-37° C., 20-24 hours): 3.1 µg/mL (≈ 4.17 µM) | MIC (Staph. aureus 642A): .06 µg/mL (≈ 0.0807 µM) | MIC (Cl. perfringens 104; Cl. perfringens 104, BHI agar, 35°-37° C., 20-24 hours): .4 µg/mL (≈ 0.538 µM) | MIC (Staph. aureus A-5278; Staph. aureus A-5278, BHI agar, 35°-37° C., 20-24 hours): 128 µg/mL (≈ 172 µM) | MIC (Staph. aureus CMX 686B; Staph. aureus CMX 686B, BHI agar, 35°-37° C., 20-24 hours): .1 µg/mL (≈ 0.134 µM)
